We go through 6 compounds from patent publication US6734003B2, “Phosphodiesterase 10” (Icos Corporation, priority 1998, dated 2004).

Broadly, the IC50 is the concentration that inhibits the measured activity by half. A word on the Km: it is the concentration of substrate that gives half-maximal velocity.

Where two headings read alike, the source gives them in different places.

In test [1] the test system is non-specific. The following applies: Coste and Grodin 1995, read-out: Target Family IC50; cited from earlier work.
The target of test [2] is T1, PDE10 (Homo sapiens, UniProt O76083, E580G).
T1 construct: The entire open reading frame of the PDE10 cDNA (clone FB94a) was placed into a yeast ADH vector; made in house; host or cells: Saccharomyces cerevisiae strain BJ2-54 (no endogenous PDE activity); 100,000 x g supernatant of the lysate, not purified
Description: PDE10 inhibition by isozyme-specific PDE inhibitors, cAMP as substrate. Type of test: biochemical. The procedure: The entire open reading frame of the PDE10 cDNA (clone FB94a) was placed into a yeast ADH vector including the alcohol dehydrogenase promoter. The construct was built in two steps.
Following transformation into BJ2-54, a yeast strain lacking endogenous PDE activity, a colony was selected, streaked out on SC-leu plates and a single colony carrying the PDE10 construct was chosen for further characterization. Following overnight growth in SC-leu media the culture was diluted 1:250 in fresh SC-leu and grown overnight at 30° C. until it reached a density of 10^7 cells/ml. The cells were collected by centrifugation, washed once with YEP 3% glycerol media, resuspended in YEP containing 3% glycerol, and grown at 30° C. for another 24 hours. The cells were harvested by centrifugation, washed with water, and frozen at −70° C. until use. Prior to use, an aliquot of the yeast extract was analyzed by SDS PAGE. A protein specific to yeast carrying the PDE10 expression construct that migrated on the SDS PAGE gels with the expected mobility (55.5 kDa) was observed by Coomassie blue staining.
Yeast cells (1×10^10) were thawed with 200 μg/ml each of pepstatin A, leupeptin, and aprotinin 1 mM DTT, and 20 μg/ml calpain inhibitors (I and II). Two hundred μl of glass beads (0.5 mm, acid washed) were added, and the mixture was vortexed for eight cycles of 30 seconds each. Samples were cooled for 4.5 minutes at 4° C. between cycles. After lysis, 0.8 ml lysis buffer was added, the lysate separated from the beads, and the lysate centrifuged for 30 minutes at 100,000×g in a Beckman TL-100 tabletop centrifuge. The supernatant was aliquoted, frozen in dry ice/ethanol, and stored at −70° C.
Kinetic assays were performed on a BIOMEK® 1000 programmable robotic station (Beckman Instruments). […] The highest nucleotide concentration contained 1 to 1.5 million Cerenkov counts of ^32P-labeled substrate per assay. […] The enzyme dilution buffer consisted of 25 mM Tris-HCl pH 8.9, 5 μM ZnSO4 5 mM MgCl2, 0.1 mM DTT, 100 mM NaCl and 0.1 mg/ml BSA (Calbiochem; fatty acid free). Activity at each substrate concentration was derived from a linear fit of successive four-fold enzyme dilutions across the plate.
Assays were performed at 30° C. for 15 minutes. After 12 minutes, 5 μl snake venom from Crotalus atrox (15 mg/ml protein) was added to each reaction. Assays were stopped by addition 200 μl of charcoal suspension (25 mg/ml activated charcoal in 0.1 M monobasic potassium phosphate). The plate was centrifuged at 2600 rpm, and 200 μl of each supernatant was transferred into Microbeta® counting plates and counted on a WALLAC Microbeta® by Cerenkov counting. Data were evaluated with a predesigned Microsoft Excel® Spreadsheet, and the kinetic parameters were fitted to a Michaelis-Menton model using the program Table Curve® from Jandel Scientific.

Test [3] has as its system PDE4. As to conditions: target family PDE4; Bolger et al. 1993; cited from earlier work.
Test [4] deals with PDE3. As to conditions: target family PDE3; Manganiello et al. 1990; cited from earlier work.
The target in test [5] is T1, PDE10. The test is described as follows: Kinetic assays of recombinant PDE10 yeast extract (cAMP and cGMP hydrolysis). Type of test: biochemical.
The target in test [6] is PDE5 (Homo sapiens, UniProt O76074). As to conditions: target family PDE5; Coste and Grodin 1995; cited from earlier work.
The target of test [7] is PDE2 (Homo sapiens, UniProt O00408). As to conditions: target family PDE2; Podzuweit et al. 1995; cited from earlier work.
The mark [8] stands for this setting: cAMP as substrate, recombinant PDE10 (clone FB94a) yeast extract.

T1 sequence (O76083 1-466 isoform O76083-3 E453G): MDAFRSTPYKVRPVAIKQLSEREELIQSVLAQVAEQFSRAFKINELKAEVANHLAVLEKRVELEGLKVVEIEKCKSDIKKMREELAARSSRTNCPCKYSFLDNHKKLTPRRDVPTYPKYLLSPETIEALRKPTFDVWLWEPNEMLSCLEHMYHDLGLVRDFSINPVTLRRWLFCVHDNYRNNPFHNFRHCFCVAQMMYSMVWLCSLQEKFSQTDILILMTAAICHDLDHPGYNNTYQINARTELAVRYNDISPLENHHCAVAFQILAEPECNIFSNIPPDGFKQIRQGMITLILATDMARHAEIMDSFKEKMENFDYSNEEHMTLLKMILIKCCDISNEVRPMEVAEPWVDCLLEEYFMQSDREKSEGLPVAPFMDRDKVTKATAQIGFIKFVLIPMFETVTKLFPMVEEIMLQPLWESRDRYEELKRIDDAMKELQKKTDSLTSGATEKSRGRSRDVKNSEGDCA
PDE2, sequence (O00408 whole entry): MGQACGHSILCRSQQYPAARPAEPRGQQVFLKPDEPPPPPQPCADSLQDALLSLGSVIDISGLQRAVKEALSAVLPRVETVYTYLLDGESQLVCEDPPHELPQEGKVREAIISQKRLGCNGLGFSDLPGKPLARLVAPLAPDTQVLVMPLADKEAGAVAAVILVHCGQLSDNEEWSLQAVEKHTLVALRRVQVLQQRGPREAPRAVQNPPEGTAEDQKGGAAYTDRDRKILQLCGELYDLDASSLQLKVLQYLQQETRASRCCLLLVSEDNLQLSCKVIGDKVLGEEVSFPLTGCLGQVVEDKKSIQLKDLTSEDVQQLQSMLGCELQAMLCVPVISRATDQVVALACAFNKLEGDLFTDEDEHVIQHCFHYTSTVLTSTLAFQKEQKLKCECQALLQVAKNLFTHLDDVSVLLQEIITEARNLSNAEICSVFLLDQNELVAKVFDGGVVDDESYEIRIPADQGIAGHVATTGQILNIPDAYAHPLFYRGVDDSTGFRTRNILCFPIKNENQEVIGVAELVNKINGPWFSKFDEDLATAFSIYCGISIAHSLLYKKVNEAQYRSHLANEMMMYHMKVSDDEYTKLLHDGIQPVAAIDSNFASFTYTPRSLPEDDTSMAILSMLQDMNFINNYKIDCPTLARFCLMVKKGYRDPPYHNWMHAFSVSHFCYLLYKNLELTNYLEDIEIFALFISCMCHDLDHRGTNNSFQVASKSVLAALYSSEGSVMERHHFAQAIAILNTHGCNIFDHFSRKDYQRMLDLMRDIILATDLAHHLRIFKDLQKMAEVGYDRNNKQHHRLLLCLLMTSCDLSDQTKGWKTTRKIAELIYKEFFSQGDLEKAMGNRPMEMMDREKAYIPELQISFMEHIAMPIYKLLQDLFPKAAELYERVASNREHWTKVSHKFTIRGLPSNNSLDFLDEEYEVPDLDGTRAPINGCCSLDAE

In the case of isobutyl methyl xanthine [IBMX], the IC50 was 2 to 20 µM in test [1] and 59 µM in test [2] (setting [8]).

With `COc1ccc(C2CNC(=O)C2)cc1OC1CCCC1` (stereo not drawn) [Rolipram, rolipram], the IC50 was 529 µM in test [2] and […] in test [3].

As for `CN(C(=O)CCCOc1ccc2[nH]c(=O)ccc2c1)C1CCCCC1` [Cilostamide], the IC50 in test [4] was 0.04 to 0.9 µM; in test [2], 100 µM.

With `Nc1nc2c(ncn2[C@@H]2O[C@@H]3COP(=O)(O)O[C@H]3[C@H]2O)c(=O)[nH]1` [cGMP], the “hydrolytic activity in the extract” value in test [5] (PDE10 yeast extract) is listed as 0.035 (±0.01) μmol/min/mg. For the same compound, in test [5] (substrate of PDE10, 30° C., Michaelis-Menton fit), the Km worked out at 5 nM.

Regarding `CCCOc1ccc(NS(C)(=O)=O)cc1-c1nc2c(c(C)nn2C)c(=O)[nH]1` [DMPPO], the IC50 was 9 µM in test [2] (setting [8]) and 0.003 µM in test [6].

Take `CCCCCCC(C(C)O)n1cnc2c(N)ncnc21` (stereo not drawn) [EHNA, erythro-9-(2-hydroxy-3-nonyl)adenine]: the IC50 was 477 µM in test [2] and 0.8 µM in test [7].
